Test results: ChEMBL document CHEMBL1201862, “PubChem BioAssay data set” (2004)
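Five concentrations, 48 hours, 96-well plates. GI50: concentration for 50% inhibition of growth.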 Calls of active or inactive are those of the source. Rule as the data show it: active = GI50 up to about 1.1 µM and inactive = higher.

How the values were obtained:
Experiment in all cases: inhibition of tumour cell growth, NCI panel, 48 h
NCI-H226 = test system: NCI-H226
UACC-257 = test system: UACC-257
SF-268 = test system: SF-268
NCI-H23 = test system: NCI-H23
SK-MEL-5 = test system: SK-MEL-5
KM12 = test system: KM12
OVCAR-5 = test system: OVCAR-5
TK-10 = test system: TK-10
SK-OV-3 = test system: SK-OV-3
HCT-15 = test system: HCT-15
NCI/ADR-RES = test system: NCI/ADR-RES
HCT-116 = test system: HCT-116
HOP-62 = test system: HOP-62
Malme-3M = test system: Malme-3M
NCI-H522 = test system: NCI-H522
A549 = test system: A549
SN12C = test system: SN12C
OVCAR-3 = test system: OVCAR-3
HT-29 = test system: HT-29
HOP-92 = test system: HOP-92

Compound	GI50 (NCI-H226)	GI50 (UACC-257)	GI50 (SF-268)	GI50 (NCI-H23)	GI50 (SK-MEL-5)	GI50 (KM12)	GI50 (OVCAR-5)	GI50 (TK-10)	GI50 (SK-OV-3)	GI50 (HCT-15)	GI50 (NCI/ADR-RES)	GI50 (HCT-116)	GI50 (HOP-62)	GI50 (Malme-3M)	GI50 (NCI-H522)	GI50 (A549)	GI50 (SN12C)	GI50 (OVCAR-3)	GI50 (HT-29)	GI50 (HOP-92)
CC(=O)Oc1ccccc1C(=O)O [ASPIRIN]	> 100 µM (inactive)	> 100 µM (inactive)	> 100 µM (inactive)	> 100 µM (inactive)	> 100 µM (inactive)	> 100 µM (inactive)	> 100 µM (inactive)	> 100 µM (inactive)	> 100 µM (inactive)	> 100 µM	> 100 µM (inactive)	> 100 µM (inactive)	> 100 µM (inactive)	> 100 µM (inactive)	> 100 µM (inactive)	> 100 µM (inactive)	> 100 µM (inactive)	> 100 µM (inactive)	> 100 µM (inactive)	
COc1ccccc1NC(=O)O/N=C(/Cl)C(C)C	20.8 µM (inactive)	13.7 µM (inactive)	16.6 µM (inactive)	14 µM (inactive)	11.8 µM (inactive)	20.2 µM (inactive)	16.3 µM (inactive)	13.6 µM (inactive)	18.7 µM (inactive)	13.2 µM	15.3 µM (inactive)	14.1 µM (inactive)	12.5 µM (inactive)	2.78 µM (inactive)	1.81 µM (inactive)	18.2 µM (inactive)	15.4 µM (inactive)	6.19 µM (inactive)	3.49 µM (inactive)	
COc1cc(-c2oc3c(OC)c(O)c(OC)c(O)c3c(=O)c2OC)cc(OC)c1OC	> 100 µM (inactive)	82.4 µM (inactive)	21 µM (inactive)	> 100 µM (inactive)	14 µM (inactive)	> 100 µM (inactive)	> 100 µM (inactive)	55.5 µM (inactive)	40.9 µM (inactive)	41.7 µM	62.5 µM (inactive)	68.1 µM (inactive)	28.8 µM (inactive)	> 100 µM (inactive)	17.4 µM (inactive)	> 100 µM (inactive)	> 100 µM (inactive)	31.6 µM (inactive)	50.4 µM (inactive)	
COc1cccc(NC(=O)CC(=O)N2N=C(N(CCC#N)c3ccc(Cl)cc3)CC2c2ccccc2)c1 (configuration not stated)	> 100 µM (inactive)	> 100 µM (inactive)	> 100 µM (inactive)	> 100 µM (inactive)	> 100 µM (inactive)	> 100 µM (inactive)	> 100 µM (inactive)	> 100 µM (inactive)	> 100 µM (inactive)	> 100 µM		> 100 µM (inactive)	> 100 µM (inactive)	> 100 µM (inactive)	> 100 µM (inactive)	> 100 µM (inactive)	> 100 µM (inactive)	> 100 µM (inactive)	> 100 µM (inactive)	> 100 µM (inactive)
C[N+]12C=CC=C1C(N1CCCC1)c1scc(-c3ccccc3)c12 (configuration not stated)	1.6 µM (inactive)		15.6 µM (inactive)		11.9 µM (inactive)	8.55 µM (inactive)	64.1 µM (inactive)		> 100 µM (inactive)		> 100 µM (inactive)	32.3 µM (inactive)	41.7 µM (inactive)	11.8 µM (inactive)	3.28 µM (inactive)	59.8 µM (inactive)	5.26 µM (inactive)	7.83 µM (inactive)	8.65 µM (inactive)	
Clc1ccc(/C=C/c2csnn2)cc1	> 100 µM (inactive)	> 100 µM (inactive)	> 100 µM (inactive)	> 100 µM (inactive)	> 100 µM (inactive)	> 100 µM (inactive)	> 100 µM (inactive)	> 100 µM (inactive)	> 100 µM (inactive)	> 100 µM		> 100 µM (inactive)	> 100 µM (inactive)	> 100 µM (inactive)	> 100 µM (inactive)	> 100 µM (inactive)	> 100 µM (inactive)	> 100 µM (inactive)	> 100 µM (inactive)	27.1 µM (inactive)
N#CC(/C(=N\NC(N)=S)C(=O)NC1C2CC3CC(C2)CC1C3)c1ccc(Cl)cc1 (configuration not stated)	> 100 µM (inactive)	> 100 µM (inactive)	> 100 µM (inactive)	> 100 µM (inactive)	> 100 µM (inactive)	> 100 µM (inactive)	> 100 µM (inactive)	> 100 µM (inactive)	> 100 µM (inactive)	> 100 µM		> 100 µM (inactive)	> 100 µM (inactive)	> 100 µM (inactive)	> 100 µM (inactive)	> 100 µM (inactive)	> 100 µM (inactive)	> 100 µM (inactive)	> 100 µM (inactive)	> 100 µM (inactive)
O=C(c1ccccc1)N1CCC(Nc2nccs2)O1 (configuration not stated)	> 10 µM (inactive)	> 10 µM (inactive)	> 10 µM (inactive)	> 10 µM (inactive)	> 10 µM (inactive)		> 10 µM (inactive)	> 10 µM (inactive)	> 10 µM (inactive)	> 10 µM	> 10 µM (inactive)	> 10 µM (inactive)	> 10 µM (inactive)	> 10 µM (inactive)	> 10 µM (inactive)	> 10 µM (inactive)	> 10 µM (inactive)	> 10 µM (inactive)	> 10 µM (inactive)	
